“And” between values parts separate entries of the source, which are not always exact repeats. Equal entries are not always repeated. Where two headings read alike, the source gives them in different places.
Experiments:
[1] = biological target: T1, SARS-CoV-2 NSP3 macrodomain (Mac1) (Severe acute respiratory syndrome coronavirus 2, UniProt P0DTD1); test: biochemical; assay type: binding
[2] = biological target: T1, SARS-CoV-2 NSP3 macrodomain (Mac1); assay type: binding; details: for PanDDA run, overall: Hit / PanDDA run, overall: Modeled / PanDDA run, DMSO background map: 1-BDC / PanDDA run, DMSO background map: Hit: crystal soak 10 mM; for PanDDA run, overall: Hit / PanDDA run, overall: Modeled: P43 crystal form; for Total number of conformations: ligand conformations modeled in the crystal structure; for 2*(1-BDC) (%): occupancy estimate from PanDDA
[3] = PanDDA background density correction factor
[4] = TRUE = crystal structure with ligand obtained
[5] = refined crystallographic occupancy
[6] = site of ligand in X-ray crystal structure
[7] = HTRF binding curve, SARS-CoV-2 Mac1
[8] = SARS CoV-2 macrodomain HTRF assay, dose-response
[9] = PanDDA background density correction, 1-BDC
[10] = crystal soak concentration 10 mM, DMSO background map
[11] = crystal soak concentration 10 mM, P43 crystals
[12] = ligand-bound crystal structure obtained (TRUE)
[13] = site occupied in X-ray crystal structure

SMILES | Occupancy difference (refined_occupancy - 2*(1-BDC)) [2] | 1-BDC [2, 3] | X-ray crystal structure [2, 4] | PanDDA run, overall: Hit [2] | PanDDA run, overall: Modeled [2] | PanDDA run, DMSO background map: 1-BDC ([2]; DMSO background map) | PanDDA run, DMSO background map: Hit ([2]; DMSO background map) | Total number of conformations [2] | 2*(1-BDC) (%) [2] [%] | Refined ligand occupancy (%) [2, 5] [%] | Binding site [2, 6] | Hill slope [1, 7] | Hill slope [1, 8] | 1-BDC [2, 9] | Refined ligand occupancy (%) ([2]; crystallographic refinement) | other results
OCC(CN1CCCCC1)Nc1ncnc2[nH]ccc12 (centres unmarked) [AVI-3677] | 0 | 0.21 | TRUE | TRUE | TRUE | 0.21 | TRUE | 1 | 42 | 42 | Adenosine |  |  |  |  | detectable binding at 200 μM in the HTRF assay ([1]; result in words): neither had detectable binding
O=C(O)C(F)(F)F.OCC1(Nc2ncnc3[nH]ccc23)CCCC1 [AVI-3692] | -24 | 0.22 | TRUE | TRUE | TRUE | 0.22 | TRUE | 1 | 44 | 20 | Adenosine | 1.3 | 1.3 |  |  | 
CCC(CC)(CO)Nc1ncnc2[nH]ccc12 [AVI-3695] | 6 | 0.12 | TRUE | TRUE | TRUE | 0.12 | TRUE | 2 | 24 | 30 | Adenosine | 1.3 | 1.3 |  |  | 
CCC(C)(CO)Nc1ncnc2[nH]ccc12 (centres unmarked) [AVI-3697] | 18 | 0.16 | TRUE | TRUE | TRUE | 0.16 | TRUE | 1 | 32 | 50 | Adenosine | 1.2 | 1.2 |  |  | 
OCC1CCC2(CCOCC2)CN1c1ncnc2[nH]ccc12 (centres unmarked) [AVI-4065] |  |  |  |  |  |  |  |  |  |  |  | 1.2 | 1.2 |  |  | 
OC1(CNc2ncnc3[nH]ccc23)CCC2(CC1)OCCO2 [AVI-4315] |  |  |  |  |  |  |  |  |  |  |  | 1.2 | 1.2 |  |  | 
CC(Nc1ncnc2[nH]ccc12)C1(O)CCCCC1 (centres unmarked) [AVI-4321] |  |  |  |  |  |  |  |  |  |  |  | 1.2 | 1.2 |  |  | 
Cc1c[nH]c2ncnc(NCC3(O)CCC(O)CC3)c12 (centres unmarked) [AVI-4329] |  |  |  |  |  |  |  |  | 18 |  |  |  |  | 0.09 | 30 | Hit (PanDDA run, DMSO background map) [2, 10]: TRUE; Modeled (PanDDA run, DMSO background map) [2, 10]: TRUE; 1-BDC (PanDDA run, DMSO background map) ([2]; crystal soak concentration 10 mM, DMSO background map, event 1): 0.09 and 0.11; Hit (PanDDA run, overall) [2, 11]: TRUE; Modeled (PanDDA run, overall) [2, 11]: TRUE; Modeling comment (PanDDA run, overall) [2, 11]: Duplicate, not modeled; X-ray crystal structure [2, 12]: TRUE; Binding site [2, 13]: Adenosine
CC(O)C(C)Nc1ncnc2[nH]ccc12 (centres unmarked) [AVI-5158] |  |  | TRUE |  |  |  |  |  | 34 |  | Adenosine |  |  | 0.17 | 34 | 
CC(C)C1CCCN1c1ncnc2[nH]ccc12 (centres unmarked) [AVI-5216] |  |  |  |  |  |  |  |  | 26 |  |  |  |  | 0.13 | 40 | X-ray crystal structure [2, 12]: TRUE; Binding site [2, 13]: Adenosine
CC(C)(C)C1CCCN1c1ncnc2[nH]ccc12 (centres unmarked) [AVI-6000] |  |  |  |  |  |  |  |  | 14 |  |  |  |  | 0.07 | 14 | X-ray crystal structure [2, 12]: TRUE; Binding site [2, 13]: Adenosine
